Test systems include 786-0; A498; A549; HCT-116; HCT-15; Hs-578T; IGROV-1; K562; LOX IMVI; M14; MDA-MB-231; NCI-H23; OVCAR-3; OVCAR-4; OVCAR-5; OVCAR-8; SK-MEL-2; SK-OV-3; SW-620; T47D.
What all share (experiment): NCI anticancer screen, dose series, 48 h

From ChEMBL document CHEMBL1201862, “PubChem BioAssay data set” (2004) come the findings set out here.

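Test compounds were applied to cells in 96-well plates for 48 hours at 5 doses. GI50 is the concentration that inhibits growth by half.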 Active and inactive are the calls of the source. No stated cut-off is given here; in the data, active = GI50 up to about 1.1 µM and inactive = higher.

As to `COc1ccc(OC)c2c(=O)cc(-c3ccccc3)[nH]c12`, the GI50 was > 100 µM (inactive) in the assay on 786-0; > 100 µM (inactive) in the assay with A498; > 100 µM (inactive) in the assay on A549; > 100 µM (inactive) in the assay on HCT-116; above 100 µM in the assay with HCT-15; > 100 µM (inactive) in the assay with Hs-578T. In addition, the GI50 with IGROV-1, in the assay with K562, in the assay on LOX IMVI, in the assay on M14, in the assay on MDA-MB-231 and in the assay with NCI-H23 was > 100 µM (inactive) each time. In addition, the GI50 in the assay with OVCAR-3, in the assay with OVCAR-4, in the assay on OVCAR-5, in the assay on OVCAR-8, in the assay with SK-MEL-2 and in the assay with SK-OV-3 was > 100 µM (inactive) each time. Besides, the GI50 in the assay with SW-620 and in the assay with T47D was > 100 µM (inactive) each time.
In the case of `COc1ccc(N2C(=O)C3c4[nH]c5ccc(OCc6ccccc6)cc5c4C4CCC(C(C)C)CC4C3C2=O)cc1` (stereo not given), the GI50 with 786-0 is 8.11 µM (inactive); with A498, 5.71 µM (inactive); in the assay on A549, 50.6 µM (inactive); with HCT-116, > 45.8 µM (inactive); in the assay on HCT-15, above 100 µM; in the assay with Hs-578T, 2.29 µM (inactive). The GI50 in the assay with IGROV-1 was > 39.6 µM (inactive); in the assay on K562 it was 16.7 µM (inactive); with LOX IMVI, 80.5 µM (inactive); in the assay with M14, > 48.6 µM (inactive); in the assay on MDA-MB-231, 10.5 µM (inactive); in the assay on NCI-H23, 17.4 µM (inactive). Moreover, the GI50 in the assay with OVCAR-3 was > 58.5 µM (inactive); in the assay on OVCAR-4 it was 19.4 µM (inactive); in the assay with OVCAR-5, > 40 µM (inactive); in the assay on OVCAR-8 it was 15.6 µM (inactive); in the assay with SK-MEL-2, 15.2 µM (inactive); in the assay with SK-OV-3, 17.7 µM (inactive). For the same molecule, the GI50 in the assay with SW-620 is > 100 µM (inactive); in the assay on T47D, 33.2 µM (inactive).
Consider `Cc1ccc(/C(C#N)=C/c2cccc([N+](=O)[O-])c2)cc1`, for which the GI50 in the assay with 786-0 is 31.8 µM (inactive); with A498 it was 59.4 µM (inactive); in the assay with A549, > 100 µM (inactive); in the assay with HCT-116, 76.2 µM (inactive); in the assay on HCT-15, above 100 µM; with Hs-578T, 27.4 µM (inactive). Also, the GI50 in the assay on IGROV-1 is 80.5 µM (inactive); with K562 it was > 100 µM (inactive); in the assay with LOX IMVI, > 100 µM (inactive); with M14 it was > 100 µM (inactive); in the assay with MDA-MB-231, 19.2 µM (inactive); with NCI-H23 it was > 100 µM (inactive). Further, the GI50 in the assay on OVCAR-3 was > 100 µM (inactive); in the assay on OVCAR-4, 57.8 µM (inactive); in the assay on OVCAR-5, > 100 µM (inactive); in the assay with OVCAR-8, 59.2 µM (inactive); in the assay with SK-MEL-2, 51.9 µM (inactive); in the assay with SK-OV-3, 61.9 µM (inactive). Also, the GI50 with SW-620 and with T47D was > 100 µM (inactive) each time.
For the molecule `c1ccc2c(c1)Oc1cccc3cccc-2c13`, the GI50 with 786-0 is > 100 µM (inactive); with A498 it was > 100 µM (inactive); in the assay with A549, > 100 µM (inactive); in the assay with HCT-116, > 100 µM (inactive); in the assay on HCT-15 it was 98.4 µM; in the assay on Hs-578T it was > 100 µM (inactive). For the same molecule, the GI50 with IGROV-1, in the assay with K562, with LOX IMVI, in the assay on M14, in the assay on MDA-MB-231 and with NCI-H23 was > 100 µM (inactive) in each case. The GI50 is 42.3 µM (inactive) in the assay with OVCAR-3; > 100 µM (inactive) in the assay on OVCAR-4; > 100 µM (inactive) with OVCAR-5; > 100 µM (inactive) in the assay with OVCAR-8; > 100 µM (inactive) in the assay with SK-MEL-2; > 100 µM (inactive) with SK-OV-3. The GI50 in the assay on SW-620 and in the assay with T47D was > 100 µM (inactive) in each case.
As for `O=CN1CCN(C(=O)c2ccc(Cl)cc2Cl)C1=S`, the GI50 is 30.7 µM (inactive) in the assay on 786-0; 42 µM (inactive) in the assay on A498; 67.3 µM (inactive) with A549; > 100 µM (inactive) in the assay on HCT-116; 78.7 µM in the assay with HCT-15; 32.4 µM (inactive) in the assay with Hs-578T. The GI50 is > 100 µM (inactive) in the assay on IGROV-1; 85.5 µM (inactive) with K562; 32.3 µM (inactive) in the assay with LOX IMVI; > 100 µM (inactive) with M14; > 100 µM (inactive) with MDA-MB-231; > 100 µM (inactive) in the assay on NCI-H23. The GI50 with OVCAR-3 is 40.3 µM (inactive); with OVCAR-4 it was > 100 µM (inactive); in the assay with OVCAR-5 it was > 100 µM (inactive); with OVCAR-8, > 100 µM (inactive); with SK-MEL-2, > 100 µM (inactive); with SK-OV-3 it was > 100 µM (inactive). Moreover, the GI50 is 77.8 µM (inactive) with SW-620 and 32.4 µM (inactive) in the assay with T47D.
As for `COC(=O)C1CC2C=CC1N(C(=O)OCc1ccccc1)C2` (stereo not given), the GI50 in the assay on 786-0 was > 100 µM (inactive); with A498 it was > 100 µM (inactive); with A549, > 100 µM (inactive); in the assay on HCT-116 it was > 100 µM (inactive); in the assay with HCT-15, above 100 µM; with Hs-578T, > 100 µM (inactive). Besides, the GI50 with IGROV-1, with K562, with LOX IMVI, in the assay with M14, with MDA-MB-231 and with NCI-H23 was > 100 µM (inactive) each time. Also, the GI50 in the assay on OVCAR-3, in the assay on OVCAR-4, in the assay with OVCAR-5, in the assay with OVCAR-8, in the assay with SK-MEL-2 and in the assay on SK-OV-3 was > 100 µM (inactive) throughout. Moreover, the figures for the GI50 in the assay on SW-620 and in the assay with T47D were > 100 µM (inactive) and 85.7 µM (inactive), respectively.
On to `COc1cccc(Nc2n[nH]c(NS(=O)(=O)c3cc(C)c(Cl)cc3S)n2)c1`, for which the GI50 in the assay on 786-0 is > 100 µM (inactive); with A498, > 100 µM (inactive); in the assay with A549, > 100 µM (inactive); in the assay with HCT-116 it was > 100 µM (inactive); with HCT-15, above 100 µM; in the assay with Hs-578T, > 100 µM (inactive). The GI50 in the assay on IGROV-1, in the assay with K562, in the assay on LOX IMVI, with M14, in the assay on MDA-MB-231 and with NCI-H23 was > 100 µM (inactive) in each case. For the same molecule, the GI50 with OVCAR-3, in the assay with OVCAR-4, in the assay on OVCAR-5, in the assay with OVCAR-8, with SK-MEL-2 and in the assay with SK-OV-3 was > 100 µM (inactive) throughout. The GI50 in the assay on SW-620 and in the assay with T47D was > 100 µM (inactive) in each case.
For the molecule `COC1(OC)C2(Cl)CCC1(Cl)C(OC(C)=O)C2` (stereo not given), the GI50 with 786-0 was > 100 µM (inactive); in the assay on A498, > 100 µM (inactive); in the assay on A549 it was > 100 µM (inactive); in the assay with HCT-116, > 100 µM (inactive); in the assay with HCT-15, above 100 µM; in the assay with Hs-578T, > 100 µM (inactive). Also, the GI50 with IGROV-1, with K562, with LOX IMVI, in the assay on M14, with MDA-MB-231 and with NCI-H23 was > 100 µM (inactive) in each case. Further, the GI50 with OVCAR-3, with OVCAR-4, in the assay on OVCAR-5, with OVCAR-8, in the assay with SK-MEL-2 and with SK-OV-3 was > 100 µM (inactive) each time. Further, the GI50 in the assay with SW-620 and in the assay with T47D was > 100 µM (inactive) throughout.
Regarding `CCOC(=O)c1[nH]c(-c2[nH]c(-c3[nH]c(-c4[nH]c(C(=O)OCC)c(C)c4C(=O)OCC)c(C(=O)OCC)c3C)c(C)c2C(=O)OCC)c(C(=O)OCC)c1C`, the GI50 was > 100 µM (inactive) in the assay on 786-0; > 100 µM (inactive) in the assay on A498; > 100 µM (inactive) with A549; > 100 µM (inactive) with HCT-116; above 100 µM in the assay with HCT-15; > 100 µM (inactive) with Hs-578T. For the same molecule, the GI50 in the assay with IGROV-1, in the assay on K562, in the assay with LOX IMVI, in the assay with M14, in the assay with MDA-MB-231 and in the assay on NCI-H23 was > 100 µM (inactive) in each case. For the same molecule, the GI50 in the assay with OVCAR-3, with OVCAR-4, in the assay on OVCAR-5, in the assay on OVCAR-8, in the assay on SK-MEL-2 and in the assay with SK-OV-3 was > 100 µM (inactive) in each case. Besides, the GI50 with SW-620 and in the assay with T47D was > 100 µM (inactive) each time.
For the molecule `COC(=O)C1C2CC3C1C3C2C(=O)OC` (stereo not given), the GI50 is > 100 µM (inactive) with 786-0; > 100 µM (inactive) in the assay with A498; > 100 µM (inactive) in the assay with A549; > 100 µM (inactive) with HCT-116; above 100 µM in the assay on HCT-15; > 100 µM (inactive) in the assay with Hs-578T. Further, the GI50 in the assay with IGROV-1, in the assay on K562, in the assay on LOX IMVI, in the assay with M14, with MDA-MB-231 and with NCI-H23 was > 100 µM (inactive) in each case. Also, the GI50 with OVCAR-3, with OVCAR-4, in the assay on OVCAR-5, in the assay with OVCAR-8, in the assay with SK-MEL-2 and with SK-OV-3 was > 100 µM (inactive) throughout. Further, the GI50 in the assay with SW-620 and in the assay with T47D was > 100 µM (inactive) each time.
